Consider three compounds from patent publication US20160002250A1, “POLYMORPHS AND SALTS OF A COMPOUND” (FORUM Pharmaceuticals Inc., priority 2013, published 2016).

Usually solubility (thermodynamic) stands for the concentration in solution at equilibrium with solid. A word on the pKa: it is the negative logarithm of the acid dissociation constant. Broadly, the logP is the decadic logarithm of the partition coefficient of the neutral form, usually between octanol and water. Low readings indicate a more hydrophilic compound, high ones a more lipophilic compound. The term solubility denotes the dissolved amount per volume that the medium holds. High values mean much dissolved substance, low ones little dissolved substance.

In brackets after ≈: the same amount, converted by molar mass. Entries after “also recorded” stand apart in the source; their conditions may differ. Read-outs that look alike come from different tables or passages of the source. Marks after values point to notes of the source that are not given here.

The nature of data set [1]: Gravimetric Vapour Sorption (GVS). Type of data set: physicochemical. As for the experimental part: Sorption isotherms were obtained using a SMS DVS Intrinsic moisture sorption analyzer, controlled by DVS Intrinsic Control software v1.0.0.30. The sample temperature was maintained at 25° C. by the instrument controls. The humidity was controlled by mixing streams of dry and wet nitrogen, with a total flow rate of 200 ml/min. The relative humidity was measured by a calibrated Rotronic probe (dynamic range of 1.0-100% RH), located near the sample. The weight change, (mass relaxation) of the sample as a function of % RH was constantly monitored by the microbalance (accuracy ±0.005 mg).
Typically 5-30 mg of sample was placed in a tared mesh stainless steel basket under ambient conditions. The sample was loaded and unloaded at 40% relative humidity (RH) and 25° C. (typical room conditions). A moisture sorption isotherm was performed as outlined below in Table 4 (2 scans giving 1 complete cycle). The standard isotherm was performed at 25° C. at 10% RH intervals over a 0-90% RH range. Data analysis was undertaken in Microsoft Excel using DVS Analysis Suite. The sample was recovered after completion of the isotherm and re-analyzed by XRPD.

Data set [2] in a line: Six-week stability study (elevated humidity, 60° C., room conditions). The class given is physicochemical. As to the method: The stability to elevated humidity and air oxidation was investigated for both Form 1 and Form 2 of the Free Base. Samples of both materials were stored at 40° C./75% RH, 25° C./96% RH, 60° C. in contact with air and ambient conditions (25° C. in contact with air) for six weeks, and analyses by XRPD, HPLC and ^1H-NMR (for oxidation study samples only) were carried out weekly.

Data set [3] can be described thus: Storage at elevated humidity. The class given is physicochemical. As to conditions: seven days. As for the experimental part: Samples were place on a glass slide and sealed in an airtight plastic container, along with an open beaker of saturated aqueous salt solution, and stored at a known regulated temperature. A saturated solution of NaCl was used to obtain a relative humidity of 75% at 40° C., whilst a saturated solution of potassium nitrate was used to provide 92% RH at 25° C.

Data set [4] can be described thus: Solubility in solvents, slow cooling and evaporation experiments. The class given is physicochemical. The conditions noted are these: MeCN/H2O, 20 volumes, 50° C. As for the experimental part: 4-(4-(imidazo[1,2-b]pyridazin-2-ylmethoxy)phenyl)-2,2-dimethyl-5-(pyridin-4-yl)furan-3(2H)-one (Form 2 or Form 1; ca. 10 mg per experiment) was weighed into vials, and the stated solvents were added, in increasing portions at 50° C. With each addition, the vials were allowed to shake for ˜20 minutes. Any solutions observed were allowed to cool to room temperature. Those experiments that remained as solutions were pin-holed to allow the solvent to slowly evaporate. Any suspensions observed were subjected to heat/cool cycles, between room temperature and 50° C., four hours at each condition.

Data set [5] in a line: Thermodynamic aqueous solubility. The conditions noted are these: for Thermodynamic solubility: 25° C.; for solubility thermodynamic at 24 h / solubility at 24 h: 25 °C, thermodynamic from solid.
Experimental: The suspension was equilibrated at 25° C. for 24 hours then the pH was measured and adjusted with either HCl or NaOH if it deviated by more than 0.3 units from the target pH. The suspension was then filtered through a glass fiber C filter. […] Different volumes of the standard, diluted and undiluted sample solutions were injected.
Analysis was performed on an Agilent HP1100 series system equipped with a diode array detector and using ChemStation software. The following buffers were prepared to carry out the solubility analyses:
pH 1.2—made up by adding 85.0 mL of 0.2M HCl(aq) to 50 mL of 0.2M KCl(aq) and making up to 200 mL. pH 4.5—made up by adding 2.99 g of NaC2H3O2.3H2O to 14.0 mL of 2N AcOH(aq) and making up to 1000 mL. pH 7.4—made up adding 39.1 mL of 0.2M NaOH(aq) to 50.0 mL of a 0.2M KH2PO4 and making up to 200 mL.
Data set [6] is described as follows: pKa determination (Sirius GlpKa). Type of data set: physicochemical. The conditions noted are these: 25° C. As for the experimental part: Data were collected on a Sirius G1pKa instrument with a D-PAS attachment. Measurements were made at 25° C. in aqueous solution by UV and in methanol water mixtures by potentiometry. The titration media was ionic-strength adjusted (ISA) with 0.15 M KCl (aq). The values found in the methanol water mixtures were corrected to 0% co-solvent via a Yasuda-Shedlovsky extrapolation. The data were refined using Refinement Pro software v2.2. Prediction of pKa values was made using ACD/Labs software.

Data set [7] is described as follows: Log P determination (potentiometric titration). The class given is physicochemical. The conditions noted are these: octanol/ionic-strength adjusted (ISA) water. An excerpt: Data were collected by potentiometric titration on a Sirius G1pKa instrument using three ratios of octanol:ionic-strength adjusted (ISA) water to generate Log P, Log Pion, and Log D values. The data were refined using Refinement Pro software. Prediction of Log P values was made using ACD/Labs software.

The nature of data set [8]: Stability of amorphous material at room and elevated humidity conditions. Type of data set: physicochemical. As to the method:
A DSC experiment was performed to assess the possibility of preparing amorphous material by melting and quench cooling. A sample of Form 1 (˜1 mg) was heated to 200° C. until it melted, then quickly cooled down to −80° C. and re-heated at 10° C./min. […] The crystalline Form 1 then melted at 184° C.
The experiment was repeated on a larger scale (batches of ˜60 mg) on the TGA instrument, and the resulting glasses were used as input materials for maturation experiments. Samples were also stored at elevated humidity conditions for re-analysis by XRPD after 24 h.

As to `CC1(C)OC(c2ccncc2)=C(c2ccc(OCc3cn4ncccc4n3)cc2)C1=O` [Form 1, 4-(4-(imidazo[1,2-b]pyridazin-2-ylmethoxy)phenyl)-2,2-dimethyl-5-(pyridin-4-yl)furan-3(2H)-one], the “Form change by XRPD during GVS” value in data set [1] (RH 0% to 90%) is listed as “No form change”. Further, the “GVS water uptake (% of mass)” value in data set [1] (RH from 0% to 90%, 25° C.) is reported as 0.9%. Also, the “Purity (area %)” value was 96.6 area % in data set [2] (25° C./96% RH, Week 1); 95.5 area % in data set [2] (25° C./96% RH, Week 2); 96.5 area % in data set [2] (25° C./96% RH, Week 3); 95.9 area % in data set [2] (25° C./96% RH, Week 4); 91.8* area % in data set [2] (25° C./96% RH, Week 5, samples run after 24 hours in solution); 95.5 area % in data set [2] (25° C./96% RH, Week 6). Further, the “Purity (area %)” value is 96.9 area % in data set [2] (40° C./75% RH, Week 1); 96.3 area % in data set [2] (40° C./75% RH, Week 2); 96.5 area % in data set [2] (40° C./75% RH, Week 3); 95.6 area % in data set [2] (40° C./75% RH, Week 4); 95.6* area % in data set [2] (40° C./75% RH, Week 5, samples run after 24 hours in solution); 96.8 area % in data set [2] (40° C./75% RH, Week 6). Moreover, the “Purity (area %)” value is given as 96.8 area % in data set [2] (60° C., Week 1); 95.2 area % in data set [2] (60° C., Week 2); 95.5 area % in data set [2] (60° C., Week 3); 94.8 area % in data set [2] (60° C., Week 4); 96.0* area % in data set [2] (60° C., Week 5, samples run after 24 hours in solution); 95.9 area % in data set [2] (60° C., Week 6). Further, the “Purity (area %)” value in data set [2] (Room conditions, Week 1) is given as 96.5 area %; in data set [2] (Room conditions, Week 2), 94.9 area %; in data set [2] (Room conditions, Week 3), 96.6 area %; in data set [2] (Room conditions, Week 4), 96.0 area %; in data set [2] (Room conditions, Week 5, samples run after 24 hours in solution), 95.5* area %; in data set [2] (Room conditions, Week 6), 95.9 area %. Further, in data set [2] (40° C./75% RH, 25° C./96% RH, 60° C. and ambient conditions, six weeks, XRPD, HPLC, 1H-NMR), the “Stability to elevated humidity and air oxidation” value is reported as “No significant changes; also recorded: no significant degradation”. Moreover, the “Changes after storage at 60° C.” value in data set [2] (60° C., 4 weeks) is “no significant changes”. Also, in data set [2] (60° C., six weeks), the “Changes by 1H-NMR or HPLC after storage at 60° C.” value is reported as “no significant changes”. Further, the Stability to humidity entry in data set [2] (elevated humidity and temperature conditions, after 6 weeks) is “No changes observed at elevated”. The “Change in XRPD pattern on storage” value in data set [3] (25° C./92% RH) and in data set [3] (40° C./75% RH) was “no significant change in the XRPD pattern” in each case. In addition, the “Solubility (volumes)” value in data set [4] is reported as “Almost”. Further, the “pH of saturated unfiltered solution” value in data set [5] (DI water) is given as 7.67; in data set [5] (pH 1.2 buffer) it was 1.40; in data set [5] (pH 4.5 buffer) it was 4.67; in data set [5] (pH 7.4 buffer), 7.46. In addition, the Thermodynamic solubility in data set [5] (DI water, 24 hours) turned out to be 60 µg/mL; in data set [5] (pH 1.2 buffer, 24 hours), 32000 µg/mL; in data set [5] (pH 4.5 buffer, 24 hours), 60 µg/mL. Moreover, the thermodynamic solubility at 24 h in data set [5] (deionized water, water, thermodynamic aqueous solubility, at pH 7.67 (Form 1), pH 7.23 (Form 2)) is ~60 µg/mL (≈ 145 µM); in data set [5] (pH 7.4 buffer, pH 7.4, aqueous buffer, Thermodynamic solubility, 24 hours), 50 µg/mL (≈ 121 µM).
In the case of `CC1(C)OC(c2ccncc2)=C(c2ccc(OCc3cn4ncccc4n3)cc2)C1=O` [Free Base, 4-(4-(imidazo[1,2-b]pyridazin-2-ylmethoxy)phenyl)-2,2-dimethyl-5-(pyridin-4-yl)furan-3(2H)-one], the pKa in data set [6] (read-out: pKa (first of two basic centers)) came to 3.7; in data set [6] (read-out: pKa (second of two basic centers)), 2.9. Further, in data set [7], the logP was determined as 3. In addition, the solubility at 24 h in data set [5] (aqueous buffer, pH 1.2, simulated gastric fluid) is 12200 µg/mL (≈ 29600 µM); in data set [5] (aqueous buffer, pH 4.5, aqueous buffer) it was 90 µg/mL (≈ 218 µM); in data set [5] (aqueous buffer, pH 7.4, aqueous buffer), 50 µg/mL (≈ 121 µM); in data set [5] (water (unadjusted aqueous), water) it was 60 µg/mL (≈ 145 µM). In addition, the “pH of unfiltered saturated solution” value is listed as 1.24 in data set [5] (pH point 1.2), 4.71 in data set [5] (pH point 4.5), 7.44 in data set [5] (pH point 7.4) and 6.19 in data set [5] (pH point unadjusted aqueous).
Consider `CC1(C)OC(c2ccncc2)=C(c2ccc(OCc3cn4ncccc4n3)cc2)C1=O` [amorphous material, 4-(4-(imidazo[1,2-b]pyridazin-2-ylmethoxy)phenyl)-2,2-dimethyl-5-(pyridin-4-yl)furan-3(2H)-one], for which the “Form by XRPD after storage at elevated humidity” value in data set [8] (elevated humidity conditions, 24 h) was “All solids displayed Form 1”. Further, the “Form on standing at room conditions” value in data set [8] (typically 25° C., 40% RH) is “converted to Form 1”.
